Measured values from publication PMC8622706, “Synthesis, Molecular Docking, and Antimalarial Activity of Hybrid 4-Aminoquinoline-pyrano[2,3-c]pyrazole Derivatives” (Pharmaceuticals, 2021).
Where two headings read alike, the source gives them in different places.

How the values were obtained:
[1] = system: P. falciparum 3D7 (chloroquine-sensitive); assay: pLDH antimalarial assay, P. falciparum 3D7 culture; assay type: cell-based, Plasmodium falciparum; conditions: for EC50: Plasmodium falciparum, read-out: P. falciparum 3D7 (CQ-Sensitive) EC50 ± S.D.; for Selectivity Index (SI), (CC50 MTT/EC50 pLDH), CQ-Sensitive: Vero CC50 / 3D7 EC50
Description: (§1) The parasites were cultivated by the Trager and Jensen methods to determine the antimalarial activity of the hybrid 4-aminoquinoline-pyrano[2,3-c]pyrazole derivatives against chloroquine-sensitive P. falciparum 3D7 and chloroquine-resistant P. falciparum K1. […] The parasites were maintained in continuous culture in fresh group O (Rhesus positive) human erythrocytes suspended in 2% hematocrit in RPMI 1640 containing […] Albumax I, glucose (3 g/L), hypoxanthine (45 μg/L), and gentamicin (50 μg/L). Plasmodium lactate dehydrogenase (pLDH) assays were performed as described by Makler et al., with slight modification. Parasites were plated in asynchronized phase at 2% hematocrit and 2% parasitemia in 100 μL of the test compounds. The compounds were dissolved in DMSO and further diluted in a culture medium. Chloroquine diphosphate and artemisinin were used as antimalarial reference drugs. Unparasitized erythrocytes without the test compounds were the blanks, while parasitized erythrocytes without test compounds were the control for the assay. Plates were placed in an incubator supplied with 5% CO2 and incubated at 37 °C for 48 h. After incubation, plates were subjected to three 30 min of freeze-thaw cycles to lyse and re-suspend the erythrocytes in the culture. Subsequently, Malstat reagent (100 μL) and a nitro blue tetrazolium salt/phenazine ethosulfate (NBT/PES) solution (25 μL) were added to each well of a new 96-well microtiter plate. The culture (25 μL) was then added to the corresponding well of the reagent plate to initiate the lactate dehydrogenase reaction. Color development of the plate was monitored calorimetrically at 650 nm after an hour of incubation in the dark.

[2] = system: P. falciparum K1 (chloroquine-resistant); assay: pLDH antimalarial assay, P. falciparum K1 culture; assay type: cell-based, Plasmodium falciparum; conditions: for Resistance Index (RI), (EC50 Resistance/EC50 Sensitive): K1/3D7; for EC50: Plasmodium falciparum, read-out: P. falciparum K1 (CQ-Resistant) EC50 ± S.D.; for Selectivity Index (SI), (CC50 MTT/EC50 pLDH), CQ-Resistant: Vero CC50 / K1 EC50
Description: as §1

MTT cytotoxicity assay = assay type: cell-based; conditions: African green monkey, Vero cells (ATCC CCL-81), read-out: Vero Cell (Normal Cell) CC50 ± S.D.
Description: The cytotoxicity of the hybrid 4-aminoquinoline-pyrano[2,3-c]pyrazole derivatives was measured using the MTT assay described by Mossmann. […] The cell suspension without test compounds served as the positive control for cell growth. […] The medium was then aspirated, and formazan crystals were solubilized by adding 100 μL of DMSO per well for 10 min at 37 °C in a CO2 incubator. […] Three independent tests were conducted to determine the cytotoxicity of each test compound.

P. berghei = system: P. berghei; parameters: method as in PMID 30737133; conditions: P. berghei-infected mice, 5th day after infection; cited from earlier work
P. falciparum = system: P. falciparum; parameters: method as in doi:10.1039/C6RA01349J; conditions: comparator value; read-out: antiplasmodial activity against P. falciparum; cited from earlier work
[3] = 3D7, chloroquine-sensitive strain, pLDH assay, 48 h
[4] = K1, chloroquine-resistant strain, pLDH assay, 48 h

| Structure (SMILES) | EC50 [1, 3] [nM] | Selectivity Index (SI), (CC50 MTT/EC50 pLDH), CQ-Sensitive [1] | Resistance Index (RI), (EC50 Resistance/EC50 Sensitive) [2] | EC50 [2, 4] [nM] | Selectivity Index (SI), (CC50 MTT/EC50 pLDH), CQ-Resistant [2] | CC50 at 48 h (MTT cytotoxicity assay) [µM] | EC50 ([1]; 3D7, 48 h) [nM] | EC50 ([2]; K1, 48 h) [nM] | Antimalarial activity class against K1 ([2]; class by EC50 threshold) | Antimalarial activity class against 3D7 ([1]; class by EC50 threshold) | reduction of parasitemia (P. berghei) [%] | IC50 (P. falciparum) [nM] |
| --- | --- | --- | --- | --- | --- | --- | --- | --- | --- | --- | --- | --- |
| Nc1ccnc2ccccc12 [4-aminoquinoline] | 9290 ± 120 | 12.25 | 15.11 | 140000 ± 27600 | 0.81 | 114 ± 1.63 |  |  |  |  |  |  |
| C[C@@H]1CC[C@H]2[C@@H](C)C(=O)O[C@@H]3O[C@@]4(C)CC[C@@H]1[C@]32OO4 [ART, artemisinin, reference compound] | 0.1 | >2000 | 1.7 | 0.17 | >2000 |  |  |  |  |  |  |  |
| CCN(CC)CCCC(C)Nc1ccnc2cc(Cl)ccc12 (stereo not drawn) [CQ, chloroquine, reference compound] |  |  |  |  |  |  | 2 | 330 |  |  |  |  |
| CCOC(=O)c1nn(CCNc2ccnc3cc(Cl)ccc23)c2c1C(c1ccccc1)C(C#N)=C(N)O2 (stereo not drawn) [Compound 4a, Ethyl 6-Amino-1-(2-((7-chloroquinolin-4-yl)amino)ethyl)-5-cyano-4-phenyl-1,4-dihydropyrano[2,3-c]pyrazole-3-carboxylate] | 190 ± 70 | 539.7 | 1.32 | 250 ± 30 | 410.16 |  |  |  |  |  |  |  |
| CCOC(=O)c1nn(CCNc2ccnc3cc(Cl)ccc23)c2c1C(c1ccc(CC)cc1)C(C#N)=C(N)O2 (stereo not drawn) [Compound 4b, Ethyl 6-Amino-1-(2-((7-chloroquinolin-4-yl)amino)ethyl)-5-cyano-4-(4-ethylphenyl)-1,4-dihydropyrano[2,3-c]pyrazole-3-carboxylate] | 13 ± 0.2 | 1353.9 | 1.53 | 20 ± 10 | 880 |  |  |  |  |  |  |  |
| CCOC(=O)c1nn(CCNc2ccnc3cc(Cl)ccc23)c2c1C(c1ccco1)C(C#N)=C(N)O2 (stereo not drawn) [Compound 4c, Ethyl 6-Amino-1-(2-((7-chloroquinolyn-4-yl)amino)ethyl)-5-cyano-4-(furan-2-yl)-1,4-dihydropyrano[2,3-c]pyrazole-3-carboxylate] | 113 ± 2 | 747.9 | 14.24 | 1610 ± 150 | 52.49 |  |  |  | active |  |  |  |
| CCOC(=O)c1nn(CCNc2ccnc3cc(Cl)ccc23)c2c1C(C(C)C)C(C#N)=C(N)O2 (stereo not drawn) [Compound 4d, Ethyl 6-Amino-1-(2-((7-chloroquinolyn-4-yl)amino)ethyl)-5-cyano-4-isopropyl-1,4-dihydropyrano[2,3-c]pyrazole-3-carboxylate] | 3390 ± 1890 | 25.4 | 0.09 | 300 ± 10 | 287 |  |  |  |  | active |  |  |
| CCOC(=O)c1nn(CCNc2ccnc3cc(Cl)ccc23)c2c1C(c1ccc(O)cc1)C(C#N)=C(N)O2 (stereo not drawn) [Compound 4e, Ethyl 6-Amino-1-(2-((7-chloroquinolyn-4-yl)amino)ethyl)-5-cyano-4-(4-hydroxyphenyl)-1,4-dihydropyrano[2,3-c]pyrazole-3-carboxylate] | 26 ± 9 | 355.3 | 273.84 | 7120 ± 3720 | 1.3 |  |  |  |  |  |  |  |
| Cc1nnc(Nc2cc(C(F)(F)F)nc3c(C(F)(F)F)cccc23)[nH]1 [VIII, N-(5-methyl-4H-1,2,4-triazol-3-yl)-2,8-bis(trifluoromethyl)quinolin-4-amine] |  |  |  |  |  |  |  |  |  |  | 66 |  |
| C=C[C@H]1C[N@@]2CC[C@H]1C[C@H]2[C@H](O)c1ccnc2ccc(OC)cc12 [quinine] |  |  |  |  |  |  |  |  |  |  |  | 826 |
